For 15 compounds, DC50 results are on record in patent US12486290B2, “Isoindolinone and indazole compounds for the degradation of EGFR” (C4 THERAPEUTICS, INC., priority 2019, dated 2025).

The target of this assay is T1, EGFR T790M/L858R (NCI-H1975 cells) (Homo sapiens, UniProt P00533, L858R/T790M).
T1 construct: NCI-H1975 (harboring EGFR heterozygous T790M/L858R mutations); host or cells: NCI-H1975
In words: EGFR (L858R) degradation analysis, Total EGFR (L858R) HTRF, NCI-H1975 cells. It is filed as cell-based. The conditions noted are these: 6 hours. The source says:
NCI-H1975 (harboring EGFR heterozygous T790M/L858R mutations) and NCI-H3255 (harboring EGFR heterozygous L858R mutation) were purchased from ATCC and NCI, respectively. NCI-H1975+CS (harboring EGFR heterozygous T/790M/L858R/C797S mutations) was generated using CRISPR technology to introduce the additional C797S mutation by Horizon Discovery. RPMI 1640 no-phenol red medium and fetal bovine serum (FBS) were purchased from Gibco (Grand Island, NY, USA). Cell culture flasks and 384-well microplates were acquired from VWR (Radnor, PA, USA). Total EGFR (L858R) HTRF assay kits were purchased from Cisbio (Bedford, MA, USA).
Degradation of EGFR protein containing L858R mutation was determined based on quantification of FRET signal using Total EGFR (L858R) HTRF assay kit. Test compounds were added to the 384-well plate from a top concentration of 10 μM with 11 points, half log titration in duplicates. NCI-H1975, NCI-H1975+CS or NCI-H3255 cells were added into 384-well plates at a cell density of 10000, 10000 or 1000 cells per well, respectively. The plates were kept at 37° C. with 5% CO2 for 6 hours. Cells treated in the absence of the test compound were the negative control. Positive control was set by wells containing all reagents but no cells. FRET signal was acquired on EnVision™ Multilabel Reader (PerkinElmer, Santa Clara, CA, USA).
(In general: In TR-FRET formats the signal depends on donor and acceptor labels being close together.)

T1 sequence (P00533 25-1210 T790M/L858R): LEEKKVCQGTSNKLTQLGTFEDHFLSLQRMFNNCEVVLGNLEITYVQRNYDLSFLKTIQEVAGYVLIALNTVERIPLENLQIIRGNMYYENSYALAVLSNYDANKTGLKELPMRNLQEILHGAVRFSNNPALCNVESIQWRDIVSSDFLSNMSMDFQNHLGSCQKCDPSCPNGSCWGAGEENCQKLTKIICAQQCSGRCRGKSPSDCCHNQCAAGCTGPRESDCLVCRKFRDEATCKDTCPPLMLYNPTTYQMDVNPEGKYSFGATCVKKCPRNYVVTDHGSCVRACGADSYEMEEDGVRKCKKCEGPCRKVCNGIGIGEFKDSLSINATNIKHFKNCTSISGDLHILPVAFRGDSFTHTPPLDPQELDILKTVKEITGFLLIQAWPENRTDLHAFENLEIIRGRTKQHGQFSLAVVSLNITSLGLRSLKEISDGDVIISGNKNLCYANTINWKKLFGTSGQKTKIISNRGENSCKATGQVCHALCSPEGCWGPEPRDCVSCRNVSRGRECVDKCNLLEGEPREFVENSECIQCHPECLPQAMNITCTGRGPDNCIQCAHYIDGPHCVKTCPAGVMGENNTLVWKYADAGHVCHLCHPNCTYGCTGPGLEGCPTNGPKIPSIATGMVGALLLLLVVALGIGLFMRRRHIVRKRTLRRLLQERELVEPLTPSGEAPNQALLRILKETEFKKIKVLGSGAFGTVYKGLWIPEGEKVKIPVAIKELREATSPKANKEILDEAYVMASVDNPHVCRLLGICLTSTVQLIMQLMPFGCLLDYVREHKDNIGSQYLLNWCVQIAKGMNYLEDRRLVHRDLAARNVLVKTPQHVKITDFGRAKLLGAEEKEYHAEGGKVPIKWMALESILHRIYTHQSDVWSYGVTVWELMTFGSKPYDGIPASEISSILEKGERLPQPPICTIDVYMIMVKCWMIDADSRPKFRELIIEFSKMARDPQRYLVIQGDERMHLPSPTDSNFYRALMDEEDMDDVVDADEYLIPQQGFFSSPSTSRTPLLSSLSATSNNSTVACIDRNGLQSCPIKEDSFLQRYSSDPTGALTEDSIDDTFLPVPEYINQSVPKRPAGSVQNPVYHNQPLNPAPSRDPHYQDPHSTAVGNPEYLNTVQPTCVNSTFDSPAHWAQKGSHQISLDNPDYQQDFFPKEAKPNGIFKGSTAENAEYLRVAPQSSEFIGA

Turning to `O=C1CC[C@H](Nc2ccc(C3CCN(CC(=O)N4CC[C@H](Oc5ccc(-c6cc(F)c7c(c6)C(=O)N(C(C(=O)Nc6nccs6)c6ncn8c6CCC8)C7)cc5)C4)CC3)cc2)C(=O)N1` (stereo partly drawn) [Compound 42, 2-(6,7-dihydro-5H-pyrrolo[1,2-c]imidazol-1-yl)-2-[6-[4-[(3S)-1-[2-[4-[4-[[(3S)-2,6-dioxo-3-piperidyl]amino]phenyl]-1-piperidyl]acetyl]pyrrolidin-3-yl]oxyphenyl]-4-fluoro-1-oxo-isoindolin-2-yl]-N-thiazol-2-yl-acetamide], the DC50 (commonly the midpoint of the concentration-degradation curve) came to 20 nM. Compound `Cn1nc(N2CCC(=O)NC2=O)c2ccc(C3CCN(CC(=O)N4CC5(C4)CN(c4ccc(-c6cc(F)c7c(c6)C(=O)N(C(C(=O)Nc6nccs6)c6ncn8c6CCC8)C7)cc4)C5)CC3(F)F)cc21` (stereo not drawn) [Compound 50, 2-(6,7-dihydro-5H-pyrrolo[1,2-c]imidazol-1-yl)-2-[6-[4-[2-[2-[4-[3-(2,4-dioxohexahydropyrimidin-1-yl)-1-methyl-indazol-6-yl]-3,3-difluoro-1-piperidyl]acetyl]-2,6-diazaspiro[3.3]heptan-6-yl]phenyl]-4-fluoro-1-oxo-isoindolin-2-yl]-N-thiazol-2-yl-acetamide] showed a DC50 of 10 nM. Compared with the last compound, the DC50 is about 2-fold lower. For the compound `O=C1CCC(Nc2cccc(C3CCN(CC(=O)N4CCN(c5ccc(-c6cc(F)c7c(c6)C(=O)N(C(C(=O)Nc6nccs6)c6ncn8c6CCC8)C7)cc5)CC4)CC3)c2)C(=O)N1` (stereo not drawn) [Compound 16, 2-(6,7-dihydro-5H-pyrrolo[1,2-c]imidazol-1-yl)-2-(6-(4-(4-(2-(4-(3-((2,6-dioxopiperidin-3-yl)amino)phenyl)piperidin-1-yl)acetyl)piperazin-1-yl)phenyl)-4-fluoro-1-oxoisoindolin-2-yl)-N-(thiazol-2-yl)acetamide], the DC50 turned out to be 92 nM. Against the preceding compound, the DC50 is about 9.2-fold higher.

The compound `O=C1CCC(Nc2cc(F)c(N3CCC(O)(CC(=O)N4CCC5(CC4)CN(c4ccc(-c6cc(F)c7c(c6)C(=O)N(C(C(=O)Nc6nccs6)c6ncn8c6CCC8)C7)cc4)C5)CC3)c(F)c2)C(=O)N1` (stereo not drawn) [Compound 137, 2-(6,7-dihydro-5H-pyrrolo[1,2-c]imidazol-1-yl)-2-[6-[4-[7-[2-[1-[4-[[2,6-dioxo-3-piperidyl]amino]-2,6-difluoro-phenyl]-4-hydroxy-4-piperidyl]acetyl]-2,7-diazaspiro[3.5]nonan-2-yl]phenyl]-4-fluoro-1-oxo-isoindolin-2-yl]-N-thiazol-2-yl-acetamide] showed a DC50 (class symbols) of 50 to 150 nM. For the setting “class symbols”, `O=C1CC[C@H](Nc2ccc(N3CCC(O)(C(=O)N4CC5(C4)CN(c4ccc(-c6cc(F)c7c(c6)C(=O)N(C(C(=O)Nc6nccs6)c6ncn8c6CCC8)C7)cc4)C5)CC3)c(F)c2)C(=O)N1` (stereo partly drawn) [Compound 146, 2-(6,7-dihydro-5H-pyrrolo[1,2-c]imidazol-1-yl)-2-[6-[4-[2-[1-[4-[[2,6-dioxo-3-piperidyl]amino]-2-fluoro-phenyl]-4-hydroxy-piperidine-4-carbonyl]-2,6-diazaspiro[3.3]heptan-6-yl]phenyl]-4-fluoro-1-oxo-isoindolin-2-yl]-N-thiazol-2-yl-acetamide] came in with a DC50 of under 50 nM. `O=C1CCC(Nc2ccc(C3CCN(CC(=O)N4CCN(c5ccc(-c6cc(Cl)c7cn(C(C(=O)Nc8nccs8)c8ncn9c8CCC9)nc7c6Cl)cc5)CC4)CC3)cc2)C(=O)N1` (racemic) [Compound 61, (2RS)-2-[4,7-Dichloro-6-[4-[4-[2-[4-[4-[[(3RS)-2,6-dioxo-3-piperidyl]amino]phenyl]-1-piperidyl]acetyl]piperazin-1-yl]phenyl]indazol-2-yl]-2-(6,7-dihydro-5H-pyrrolo[1,2-c]imidazol-1-yl)-N-thiazol-2-yl-acetamide] came in with a DC50 of 112 nM.

Consider `O=C1CC[C@@H](Nc2ccc(C3CCN(CC(=O)N4CCN(c5ccc(-c6cc(F)c7c(c6)C(=O)N(C(C(=O)Nc6nccs6)c6ncn8c6CCC8)C7)cc5)CC4)CC3)cc2)C(=O)N1` (stereo partly drawn) [Compound 7, 2-(6,7-dihydro-5H-pyrrolo[1,2-c]imidazol-1-yl)-2-[6-[4-[4-[2-[4-[4-[[(3R)-2,6-dioxo-3-piperidyl]amino]phenyl]-1-piperidyl]acetyl]piperazin-1-yl]phenyl]-4-fluoro-1-oxo-isoindolin-2-yl]-N-thiazol-2-yl-acetamide], for which the DC50 is 18 nM. Against the preceding compound, the DC50 is about 6.2-fold lower.

Consider `O=C1CCC(c2ccc(N3CCC(O)(CC(=O)N4CCC5(CC4)CN(c4ccc(-c6cc(F)c7c(c6)C(=O)N(C(C(=O)Nc6nccs6)c6ncn8c6CCC8)C7)cc4)C5)CC3)c(F)c2)C(=O)N1` (stereo not drawn) [Compound 160, 2-(6,7-dihydro-5H-pyrrolo[1,2-c]imidazol-1-yl)-2-[6-[4-[7-[2-[1-[4-(2,6-dioxo-3-piperidyl)-2-fluoro-phenyl]-4-hydroxy-4-piperidyl]acetyl]-2,7-diazaspiro[3.5]nonan-2-yl]phenyl]-4-fluoro-1-oxo-isoindolin-2-yl]-N-thiazol-2-yl-acetamide], for which the half-maximal degradation concentration (DC50) (class symbols) fell in the range of 50 to 150 nM. Compound `O=C1CCC(Nc2ccc(C3CCN(CC(=O)N4CCN(c5ccc(-c6cc(F)c7c(c6)C(=O)N(C(C(=O)Nc6nccs6)c6ncn8c6CCC8)C7)cc5)CC4)CC3)cc2F)C(=O)N1` (stereo not drawn) [Compound 13, 2-(6,7-dihydro-5H-pyrrolo[1,2-c]imidazol-1-yl)-2-[6-[4-[4-[2-[4-[4-[(2,6-dioxo-3-piperidyl)amino]-3-fluoro-phenyl]-1-piperidyl]acetyl]piperazin-1-yl]phenyl]-4-fluoro-1-oxo-isoindolin-2-yl]-N-thiazol-2-yl-acetamide] yielded a DC50 of 52 nM. That is a double-digit nanomolar value. The same measure, in the same setting: as for `O=C1CCC(Nc2ccc(C3CCN(C(=O)CCCN4CCN(c5ccc(-c6cc(F)c7c(c6)C(=O)N(C(C(=O)Nc6nccs6)c6ncn8c6CCC8)C7)cc5)CC4)CC3)cc2)C(=O)N1` (racemic) [Compound 8, (2RS)-2-(6,7-Dihydro-5H-pyrrolo[1,2-c]imidazol-1-yl)-2-[4-fluoro-1-oxo-6-[4-[4-[4-oxo-4-[4-[4-[[(3RS)-2,6-dioxo-3-piperidyl]amino]phenyl]-1-piperidyl]butyl]piperazin-1-yl]phenyl]isoindolin-2-yl]-N-thiazol-2-yl-acetamide], the figure is 17 nM; as for `O=C1CCC(N2Cc3c(OC4CCN(C(=O)CCCN5CCN(c6ccc(-c7ccc8cn(C(C(=O)Nc9nccs9)c9ncn%10c9CCC%10)nc8c7F)cn6)CC5)CC4)cccc3C2=O)C(=O)N1` (racemic) [Compound 62, (2RS)-2-(6,7-Dihydro-5H-pyrrolo[1,2-c]imidazol-1-yl)-2-[7-fluoro-6-[6-[4-[4-oxo-4-[4-[1-oxo-2-[(3RS)-2,6-dioxo-3-piperidyl]isoindolin-4-yl]oxy-1-piperidyl]butyl]piperazin-1-yl]-3-pyridyl]indazol-2-yl]-N-thiazol-2-yl-acetamide], 19 nM. As to `O=C1CCC(Nc2ccc(C3CCN(CC(=O)N4CCN(c5ccc(-c6cc(F)c7cn(C(C(=O)Nc8nccs8)c8ncn9c8CCC9)nc7c6)cn5)CC4)CC3)c(F)c2)C(=O)N1` (stereo not drawn) [Compound 64, 2-(6,7-dihydro-5H-pyrrolo[1,2-c]imidazol-1-yl)-2-[6-[6-[4-[2-[4-[4-[(2,6-dioxo-3-piperidyl)amino]-2-fluoro-phenyl]-1-piperidyl]acetyl]piperazin-1-yl]-3-pyridyl]-4-fluoro-indazol-2-yl]-N-thiazol-2-yl-acetamide], it took 137 nM to reach half-maximal degradation (DC50). Compared with the last compound, the DC50 is about 7.2-fold higher. The compound `Cn1nc(N2CCC(=O)NC2=O)c2ccc(C3CCN(CC(=O)N4CC5(C4)CN(c4ccc(-c6cc(F)c7c(c6)C(=O)N(C(C(=O)Nc6ccccn6)c6ncn8c6CCC8)C7)cc4)C5)CC3)cc21` (stereo not drawn) [Compound 54, 2-(6,7-dihydro-5H-pyrrolo[1,2-c]imidazol-1-yl)-2-[6-[4-[2-[2-[4-[3-(2,4-dioxohexahydropyrimidin-1-yl)-1-methyl-indazol-6-yl]-1-piperidyl]acetyl]-2,6-diazaspiro[3.3]heptan-6-yl]phenyl]-4-fluoro-1-oxo-isoindolin-2-yl]-N-(2-pyridyl)acetamide] gave a DC50 of 16 nM. For the compound `Cn1nc(N2CCC(=O)NC2=O)c2ccc(C3CCN(CC(=O)N4CC5(C4)CN(c4ccc(-c6cc(F)c7c(c6)C(=O)N(C(C(=O)Nc6ccccn6)c6ncn8c6CCC8)C7)cc4)C5)CC3(F)F)cc21` (stereo not drawn) [Compound 55, 2-(6,7-dihydro-5H-pyrrolo[1,2-c]imidazol-1-yl)-2-[6-[4-[2-[2-[4-[3-(2,4-dioxohexahydropyrimidin-1-yl)-1-methyl-indazol-6-yl]-3,3-difluoro-1-piperidyl]acetyl]-2,6-diazaspiro[3.3]heptan-6-yl]phenyl]-4-fluoro-1-oxo-isoindolin-2-yl]-N-(2-pyridyl)acetamide], it took 11 nM to reach half-maximal degradation (DC50). The DC50 values of the last two compounds are within 1.5-fold of each other. Still for that read-out and setting: as for `O=C1CCC(Oc2ccc(N3CCN(CC(=O)N4CCC(NC(=O)c5ccc(C#Cc6cc(F)c7c(c6)C(=O)N(C(C(=O)Nc6nccs6)c6ncn8c6CCC8)C7)cn5)CC4)CC3)cc2)C(=O)N1` (racemic) [Compound 3, 5-[2-[7-Fluoro-3-oxo-2-[(1RS)-1-(6,7-dihydro-5H-pyrrolo[1,2-c]imidazol-1-yl)-2-oxo-2-(thiazol-2-ylamino)ethyl]isoindolin-5-yl]ethynyl]-N-[1-[2-[4-[4-[[(3RS)-2,6-dioxo-3-piperidyl]oxy]phenyl]piperazin-1-yl]acetyl]-4-piperidyl]pyridine-2-carboxamide], the figure is 4 nM.
